According to ChEMBL document CHEMBL1201862, “PubChem BioAssay data set” (2004):
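These data come from cells grown in 96-well plates and exposed to compound for 48 hours at five concentrations. GI50 is the concentration that inhibits growth by half.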 Calls of active or inactive are those of the source. Cut-off read from the data, not from the text of the source: active = GI50 up to about 1.1 µM and inactive = higher.

Experiments:
Assay in all cases: inhibition of tumour cell growth, NCI panel, 48 h
[1] = test system: A549
[2] = test system: SNB-19
[3] = test system: SNB-75
[4] = test system: SK-MEL-28
[5] = test system: SF-268
[6] = test system: U-251
[7] = test system: Malme-3M
[8] = test system: HT-29
[9] = test system: HCT-15
[10] = test system: SK-OV-3
[11] = test system: K562
[12] = test system: SF-295
[13] = test system: NCI-H226
[14] = test system: SK-MEL-5
[15] = test system: A498
[16] = test system: OVCAR-5
[17] = test system: RXF 393
[18] = test system: UO-31
[19] = test system: RPMI-8226
[20] = test system: COLO 205

Compound	GI50 [1]	GI50 [2]	GI50 [3]	GI50 [4]	GI50 [5]	GI50 [6]	GI50 [7]	GI50 [8]	GI50 [9] [µM]	GI50 [10]	GI50 [11]	GI50 [12]	GI50 [13]	GI50 [14]	GI50 [15]	GI50 [16]	GI50 [17]	GI50 [18]	GI50 [19]	GI50 [20]
O=C1NP23(OCCO2)Oc2ccccc2C3(C(F)(F)F)O1 (stereo not given)	> 100 µM (inactive)	> 100 µM (inactive)	> 100 µM (inactive)	> 100 µM (inactive)	> 100 µM (inactive)	> 100 µM (inactive)	> 100 µM (inactive)	> 100 µM (inactive)	72.3	> 100 µM (inactive)	> 100 µM (inactive)	> 100 µM (inactive)	> 100 µM (inactive)	> 100 µM (inactive)	–	–	–	–	–	–
Cc1nc(O)nc(N/N=C/c2ccc(Cl)cc2)c1C(=O)NC(C)(CO)CO	–	> 100 µM (inactive)	> 100 µM (inactive)	> 100 µM (inactive)	> 100 µM (inactive)	> 100 µM (inactive)	> 100 µM (inactive)	> 100 µM (inactive)	> 100	> 100 µM (inactive)	> 100 µM (inactive)	> 100 µM (inactive)	> 100 µM (inactive)	> 100 µM (inactive)	> 100 µM (inactive)	> 100 µM (inactive)	> 100 µM (inactive)	> 100 µM (inactive)	> 100 µM (inactive)	> 100 µM (inactive)
COC1OC2COC(c3ccccc3)OC2C(O)C1OC(=S)c1ccccc1 (stereo not given)	0.607 µM (active)	> 100 µM (inactive)	–	26.9 µM (inactive)	> 100 µM (inactive)	0.188 µM (active)	21.2 µM (inactive)	20.5 µM (inactive)	28.4	> 100 µM (inactive)	53.3 µM (inactive)	39.3 µM (inactive)	46.1 µM (inactive)	23 µM (inactive)	40.5 µM (inactive)	> 100 µM (inactive)	41.4 µM (inactive)	61.4 µM (inactive)	15.5 µM (inactive)	16.7 µM (inactive)
N#CC(OC1OC(COC2OC(CO)C(O)C(O)C2O)C(O)C(O)C1O)c1ccccc1 (stereo not given)	> 225 µM (inactive)	> 225 µM (inactive)	> 225 µM (inactive)	> 225 µM (inactive)	> 225 µM (inactive)	> 225 µM (inactive)	> 225 µM (inactive)	> 225 µM (inactive)	> 225	> 225 µM (inactive)	> 225 µM (inactive)	> 225 µM (inactive)	> 225 µM (inactive)	> 225 µM (inactive)	> 225 µM (inactive)	> 191 µM (inactive)	> 225 µM (inactive)	> 225 µM (inactive)	> 225 µM (inactive)	> 225 µM (inactive)
COC(=O)[C@H]1C=NN[C@@H]1C(=O)N1[C@H]2CC3CC[C@@]2(CS1(=O)=O)C3(C)C	> 100 µM (inactive)	> 100 µM (inactive)	–	> 100 µM (inactive)	> 100 µM (inactive)	> 100 µM (inactive)	> 100 µM (inactive)	–	> 100	> 100 µM (inactive)	> 100 µM (inactive)	> 100 µM (inactive)	> 100 µM (inactive)	> 100 µM (inactive)	> 100 µM (inactive)	> 100 µM (inactive)	–	> 100 µM (inactive)	> 100 µM (inactive)	> 100 µM (inactive)
CCOC(=O)/C=C/CC(C)(C)COC(C)=O	> 10 µM (inactive)	–	5.11 µM (inactive)	> 10 µM (inactive)	> 10 µM (inactive)	–	–	–	> 10	> 10 µM (inactive)	9.91 µM (inactive)	> 10 µM (inactive)	2.45 µM (inactive)	–	–	9.08 µM (inactive)	5.32 µM (inactive)	> 10 µM (inactive)	> 10 µM (inactive)	–
CSCC[C@@H](NC(=O)[C@H](CC(C)C)NC(=O)C(Cc1cnc[nH]1)NC(=O)CNC(=O)[C@@H](NC(=O)[C@H](C)NC(=O)[C@H](Cc1c[nH]c2ccccc12)NC(=O)[C@H](CCC(N)=O)NC(=O)[C@@H](N)CC(N)=O)C(C)C)C(N)=O (stereo not given in full)	> 100 µM (inactive)	> 100 µM (inactive)	> 100 µM (inactive)	> 100 µM (inactive)	> 100 µM (inactive)	> 100 µM (inactive)	> 100 µM (inactive)	> 100 µM (inactive)	> 100	> 100 µM (inactive)	> 100 µM (inactive)	> 100 µM (inactive)	> 100 µM (inactive)	> 100 µM (inactive)	> 100 µM (inactive)	> 100 µM (inactive)	> 100 µM (inactive)	> 100 µM (inactive)	> 100 µM (inactive)	> 100 µM (inactive)
O=C(OC1C#CCSCC#C/C=C\1)c1ccc2c(c1)C(=O)c1ccccc1C2=O (stereo not given)	> 100 µM (inactive)	23.6 µM (inactive)	26.4 µM (inactive)	> 100 µM (inactive)	21.6 µM (inactive)	16.2 µM (inactive)	> 100 µM (inactive)	> 100 µM (inactive)	> 100	18.1 µM (inactive)	> 100 µM (inactive)	28 µM (inactive)	48.8 µM (inactive)	87.1 µM (inactive)	33.3 µM (inactive)	> 100 µM (inactive)	18.4 µM (inactive)	42.7 µM (inactive)	> 100 µM (inactive)	82.2 µM (inactive)
C=C1CC(OC)(C(O)C(=O)N[C@H]2OCO[C@H]3C2O[C@H](C[C@H](O)COC)C(C)(C)C3OC)O[C@H](C)[C@@H]1C (stereo not given in full)	< 0.00773 µM (active)	< 0.00773 µM (active)	< 0.00773 µM (active)	< 0.00773 µM (active)	< 0.00773 µM (active)	< 0.00773 µM (active)	–	< 0.00773 µM (active)	< 0.00773	–	< 0.00773 µM (active)	< 0.00773 µM (active)	< 0.00773 µM (active)	< 0.00773 µM (active)	< 0.00773 µM (active)	< 0.00773 µM (active)	< 0.00773 µM (active)	< 0.00773 µM (active)	< 0.00773 µM (active)	< 0.00773 µM (active)
